Experiment: CaMKII Cell-Based Activity: CaMKII activity in neonatal rat ventricular myocytes (NRVM) was measured by monitoring the phosphorylation level of phospholamban using high-content imaging. NRVMs were plated in a clear bottom 384-well plate in medium supplemented with 10% fetal bovine serum (FBS) and incubated at 37° C., 5% CO2 overnight. The medium was changed to a serum-free medium and compounds were dosed to the cells. The cells were incubated at 37° C., 5% CO2 for 4 hours and were then treated with 100 nM ATX-II (Alomone Labs) to activate CaMKII. 10 minutes after the addition of ATX-II, the cells were fixed with 4% formaldehyde followed by permeabilization with 0.1% triton X100. The fixed cells were stained with an anti-phospho-phospholamban primary antibody (Santa Cruz Biotechnology) and an Alexa488-labeled anti-rabbit IgG secondary antibody (Life Technologies Corporation) as well as Hoechst 33342 (Life Technologies Corporation). The cells were imaged using an ArrayScan VTI (Cellomics) and analyzed for cells containing a positive fluorescent signal at 485 nm, reported as % responder. The % responders were plotted against the compound concentration to determine the compounds EC50.

EC50 [nM]	SMILES
32	CCN(CC)[C@@H](C)CNC(=O)c1cc(OCCOC)nc(-c2cnn3ccc(-c4cccs4)nc23)c1
79	CCN(CC)[C@@H](C)CNC(=O)c1cc(-c2cnn3ccc(-c4cccs4)nc23)nc(N2CC[C@H]2C(=O)N2CC(C)(C)C2)c1
68.8	CCN(CC)[C@@H](C)CNC(=O)c1cc(-c2cnn3ccc(-c4cccs4)nc23)nc(N2CC[C@@H](N)C2)c1
28.6	CCN(CC)[C@@H](C)CNC(=O)c1cc(-c2cnn3ccc(-c4cccs4)nc23)nc(N2CC[C@H]2C(=O)N(C)OC)c1
57.1	CCN(CC)[C@@H](C)CNC(=O)c1cc(O[C@H]2CCOC2)nc(-c2cnn3ccc(-c4cccs4)nc23)c1
154	COC1CN(c2cc(C(=O)N3CC[C@H](N)C3)cc(-c3cnn4ccc(-c5cccs5)nc34)n2)C1
69.3	CCN(CC)[C@@H](C)CNC(=O)c1cc(-c2cnn3ccc(-c4cccs4)nc23)nc(N2CC[C@H](C(=O)NC)C2)c1
32.7	CCN(CC)[C@@H](C)CNC(=O)c1cc(-c2cnn3ccc(-c4ccns4)nc23)nc(N2CC[C@H]2C(=O)NC)c1
33.9	CCN(CC)[C@@H](C)CNC(=O)c1cc(-c2cnn3ccc(-c4cccs4)nc23)nc(N2CC[C@H]2C(=O)N2CC3CC3C2)c1 (some centres not stated)
66.2	CCN(CC)[C@@H](C)CNC(=O)c1cc(O[C@@H]2CCOC2)nc(-c2cnn3ccc(-c4cccs4)nc23)c1
36.8	CCC(CNC(=O)c1cc(-c2cnn3ccc(-c4cccs4)nc23)nc(N2CC[C@H]2C(=O)NC)c1)N(CC)CC (some centres not stated)
38.4	CCN(CC)[C@@H](C)CNC(=O)c1cc(OCC(C)(C)O)nc(-c2cnn3ccc(-c4cccs4)nc23)c1
27.5	CCN(CC)[C@@H](C)CNC(=O)c1cc(-c2cnn3ccc(-c4cccs4)nc23)nc(N2CC[C@H]2C(=O)NCC(F)F)c1
55.3	CCN(CC)[C@@H](C)CNC(=O)c1cc(OCC2(C)COC2)nc(-c2cnn3ccc(-c4cccs4)nc23)c1
13.6	CCCN(CC)[C@@H](C)CNC(=O)c1cc(-c2cnn3ccc(-c4cccs4)nc23)nc(N2CC[C@H]2C(=O)NC)c1
9.37	CCN(CC)[C@@H](C)CNC(=O)c1cc(-c2c(C)n[nH]c2C)nc(-c2cnn3ccc(-c4cccs4)nc23)c1
37.8	CCN(CC)[C@@H](C)CNC(=O)c1cc(OCCCOC)nc(-c2cnn3ccc(-c4cccs4)nc23)c1
20.3	CCN(CC)[C@@H](C)CNC(=O)c1cc(-c2c[nH]nc2C(F)(F)F)nc(-c2cnn3ccc(-c4cccs4)nc23)c1
10	CCN(CC)[C@@H](C)CNC(=O)c1cc(-c2cnn3ccc(-c4ccc(F)s4)nc23)nc(N2CC[C@H]2C(=O)NC)c1
21.3	CCN(CC)[C@@H](C)CNC(=O)c1cc(-c2cnn3ccc(-c4cccs4)nc23)nc(N2CC[C@H]2C(=O)N2CCOCC2)c1
84.9	CCN(CC)[C@@H](C)CNC(=O)c1cc(-c2cnn3ccc(-c4cccs4)nc23)nc(N2CC[C@H]2C(=O)NCCO)c1
56.1	CCN(CC)[C@@H](C)CNC(=O)c1cc(OCc2cccnc2)nc(-c2cnn3ccc(-c4cccs4)nc23)c1

EC50 [nM]	SMILES
68.7	CCN(CC)[C@@H](C)CNC(=O)c1cc(-c2cnn3ccc(-c4cccs4)nc23)nc(N2CC[C@H](N)C2)c1
815	CCN(CC)[C@@H](C)CNC(=O)c1cc(-c2cnn3ccc(-c4cccs4)nc23)nc(N2CCC[C@@H]2C(=O)NC)c1
127	CCN(CC)[C@@H](C)CNC(=O)c1cc(-c2cnn3ccc(-c4cccs4)nc23)nc(N2CC[C@H]2C(=O)Nc2nccs2)c1
42.9	COC1CN(c2cc(C(=O)N3CC[C@H](N)C3)cc(-c3cnn4ccc(-c5ccccc5)nc34)n2)C1
146	CCN(CC)[C@@H](C)CNC(=O)c1cc(-c2cnn3ccc(-c4ccccc4)nc23)nc(N2CC[C@H]2C(=O)NC)c1
29.7	CCN(CC)[C@@H](C)CNC(=O)c1cc(-c2cnoc2)nc(-c2cnn3ccc(-c4cccs4)nc23)c1
34.7	CCN(CC)CCNC(=O)c1cc(-c2cnn3ccc(-c4cccs4)nc23)nc(N2CC[C@H]2C(=O)NC)c1
22	CCN(CC)[C@@H](C)CNC(=O)c1cncc(-c2cnn3ccc(-c4cccs4)nc23)c1
32.5	CCN(CC)[C@@H](C)CNC(=O)c1cc(-c2cnn3ccc(-c4cccs4)nc23)nc(N2CC[C@H]2C(=O)N2CC(OC)C2)c1
64.2	CCN(CC)[C@@H](C)CNC(=O)c1cc(OCCc2cnccn2)nc(-c2cnn3ccc(-c4cccs4)nc23)c1
48.4	CCN(CC)[C@@H](C)CNC(=O)c1cc(OC[C@H](C)OC)nc(-c2cnn3ccc(-c4cccs4)nc23)c1
36	CCN(CC)[C@@H](C)CNC(=O)c1cc(-c2cnn3ccc(-c4cccs4)nc23)nc(N2CC[C@H]2C(N)=O)c1
22.3	CCN(CC)[C@@H](C)CNC(=O)c1cc(-c2cnn3ccc(-c4cccs4)nc23)nc(N2CC[C@H]2C(=O)N2CCCC2)c1
25.6	CCN(CC)[C@@H](C)CNC(=O)c1cc(-c2cnn3ccc(-c4cccs4)nc23)nc(N2CC[C@H]2C(=O)N(C)O)c1
72.9	CCN(CC)[C@@H](CO)CNC(=O)c1cc(-c2cnn3ccc(-c4cccs4)nc23)nc(N2CC[C@H]2C(=O)NC)c1
46.9	CCN(CC)[C@@H](C)CNC(=O)c1cc(-c2cnn3ccc(-c4cccs4)nc23)nc(N2CC[C@@H](C(=O)NC)C2)c1
6740	CNC(=O)[C@@H]1CCN1c1cc(C(=O)NC[C@H](C)N)cc(-c2cnn3ccc(-c4cccs4)nc23)n1
57.6	CC[C@@H](CNC(=O)c1cc(-c2cnn3ccc(-c4cccs4)nc23)nc(N2CC[C@H]2C(=O)NC)c1)N(CC)CCO
65.3	CCN(CC)[C@@H](C)CNC(=O)c1cc(-c2cnn3ccc(-c4cccs4)nc23)nc(N2CC[C@H]2C(=O)NCC#N)c1
89.3	CCN(CC)[C@@H](C)CNC(=O)c1cc(-c2cnn3ccc(-c4cccs4)nc23)nc(N2CC[C@H]2C(=O)O)c1
16.2	CCN(CC)[C@@H](C)CNC(=O)c1cc(-c2cnn3ccc(-c4cccs4)nc23)nc(N2CC[C@H]2C(=O)N2CC(F)C2)c1
47.1	CCN(CC)[C@@H](C)CNC(=O)c1cc(-c2cnn3ccc(-c4cccs4)nc23)nc(N2CC[C@H]2C(=O)NCCOC)c1

EC50 [nM]	SMILES
14.5	CCN(CC)[C@@H](C)CNC(=O)c1cc(-c2cc[nH]n2)nc(-c2cnn3ccc(-c4cccs4)nc23)c1
27.8	CCN(CC)[C@@H](C)CNC(=O)c1cc(OC[C@H]2CCCO2)nc(-c2cnn3ccc(-c4cccs4)nc23)c1
96	CCN(CC)[C@@H](C)CNC(=O)c1cc(-c2cnn3ccc(-c4cccs4)nc23)nc(N2CCNC(=O)C2)c1
41.6	CCN(CC)[C@@H](C)CNC(=O)c1cc(-c2cnn3ccc(-c4cccs4)nc23)nc(N2CC[C@H]2C(=O)NCC(F)(F)F)c1
152	CCN(CC)[C@@H](C)CNC(=O)c1cc(-c2cnn3ccc(-c4cccs4)nc23)nc(N2CC[C@H]2C(=O)N2CC(O)C2)c1
8.24	CCN(CC)[C@@H](C)CNC(=O)c1cc(-c2cnn(C)c2)nc(-c2cnn3ccc(-c4cccs4)nc23)c1
281	CCN(CC)[C@@H](C)CNC(=O)c1cc(-c2cnn3ccc(-c4cccs4)nc23)nc(N2CC[C@H]2C(=O)N2CC(S(C)(=O)=O)C2)c1
68.5	CCN(CC)[C@@H](C)CNC(=O)c1cc(OCc2ccc[n+]([O-])c2)nc(-c2cnn3ccc(-c4cccs4)nc23)c1
147	CCN(CC)[C@@H](C)CNC(=O)c1cc(-c2cnn3ccc(-c4cccs4)nc23)nc(N2CC[C@H]2C(=O)N2CC(NS(C)(=O)=O)C2)c1
13.5	CCN(CC)[C@@H](C)CNC(=O)c1cc(-c2cn[nH]c2)nc(-c2cnn3ccc(-c4cccs4)nc23)c1
654	CCN[C@@H](C)CNC(=O)c1cc(-c2cnn3ccc(-c4cccs4)nc23)nc(N2CC[C@H]2C(=O)NC)c1
794	CCN(CC)[C@@H](C)CNC(=O)c1cc(-c2cnn3ccc(-c4cccs4)nc23)nc(-c2cnn3ccc(-c4cccs4)nc23)c1
115	CCN(CC)[C@@H](C)CNC(=O)c1cc(OCCN(C)C)nc(-c2cnn3ccc(-c4cccs4)nc23)c1
12.3	CCN(CC)[C@@H](C)CNC(=O)c1cc(-c2cnn(C3COC3)c2)nc(-c2cnn3ccc(-c4cccs4)nc23)c1
86.8	CCN(CC)[C@@H](C)CNC(=O)c1cc(OCCN2CCOCC2)nc(-c2cnn3ccc(-c4cccs4)nc23)c1
70.4	CCN(CC)[C@@H](C)CNC(=O)c1cc(-c2c[nH]nc2C)nc(-c2cnn3ccc(-c4cccs4)nc23)c1
118	CCN(CC)[C@@H](C)CNC(=O)c1cc(-c2cnn3ccc(-c4cccs4)nc23)nc(N2CC[C@H]2C(=O)N2CCS(=O)(=O)CC2)c1
84.2	CCN(CC)[C@@H](C)CNC(=O)c1cc(-c2cnn3ccc(-c4cccs4)nc23)nc(N2CC[C@H]2C(=O)NOC)c1
29.4	CCN(CC)[C@@H](C)CNC(=O)c1cc(-c2cnn3ccc(-c4cccs4)nc23)nc(N2CC[C@H]2C(=O)N2CC(F)(F)C2)c1
114	CCN(CC)[C@@H](C)CNC(=O)c1cc(-c2cnn3ccc(-c4cccs4)nc23)nc(N2CCC[C@H]2C(=O)NC)c1

SMILES	EC50 [nM]
COC1CN(c2cc(C(=O)N3[C@H]4CCNC[C@@H]3CC4)cc(-c3cnn4ccc(-c5cccs5)nc34)n2)C1	148
CC(C)(O)CNc1cc(C(=O)N2CC3CCC(C2)NC3)cc(-c2cnn3ccc(-c4cccs4)nc23)n1 (configuration not stated)	406
CN(CCn1ccnc1)c1cc(C(=O)N2CC3CCC(C2)NC3)cc(-c2cnn3ccc(-c4cccs4)nc23)n1 (configuration not stated)	449
COC1CN(c2cc(C(=O)N3C4CC[C@@H]3CCNC4)cc(-c3cnn4ccc(-c5ccccc5)nc34)n2)C1	272
O=C(c1cc(-c2cnn3ccc(-c4cccs4)nc23)nc(N2CCN(C3COC3)CC2)c1)N1CC2CCC(C1)NC2 (configuration not stated)	81.8
COC1CN(c2cc(C(=O)N3CC4CCC(C3)NC4)cc(-c3cnn4ccc(-c5cccs5)nc34)n2)C1 (configuration not stated)	63.6
COCCNc1cc(C(=O)N2CC3CCC(C2)NC3)cc(-c2cnn3ccc(-c4cccs4)nc23)n1 (configuration not stated)	124
COC1CN(c2cc(C(=O)N3CC4CCC(C3)NC4)cc(-c3cnn4ccc(-c5ccccc5)nc34)n2)C1 (configuration not stated)	95.6
